# Measurements published in the supplement of paper PMC10307832.
# Assays:
# Test in all cases: relative viability (nuclei count vs DMSO), 5 days (fraction); higher = more cells survive
# [1] = compound: CCNC(=O)c1noc(-c2cc(C(C)C)c(O)cc2O)c1-c1ccc(CN2CCOCC2)cc1 [Luminespib]
# Summary of the method: (§1)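 MetaXpress counted nuclei in 4× images of lung cancer cell lines that had been fixed, permeabilised and Hoechst-stained in one step. Before that, cells in 1536-well plates were kept overnight at 37 °C, pinned with five √10-spaced library-drug doses on vehicle-anchored plates, and cultured 5 days without medium change. Viability takes treated-well nuclei over vehicle-well nuclei and uses the median across plates. Plates were accepted only at control CV below 25% and at least one doubling.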
# [2] = compound: CC1=CSC(=NC2CCCCC2)N1/N=C/C3=C(C(=C(C=C3)O)O)O [MIM1]
# Summary of the method: as §1
# [3] = compound: CN1CCN(CCOc2cc(OC3CCOCC3)c3c(Nc4c(Cl)ccc5c4OCO5)ncnc3c2)CC1 [Saracatinib]
# Summary of the method: as §1
# [4] = compound: Cc1cn(-c2cc(NC(=O)c3ccc(C)c(Nc4nccc(-c5cccnc5)n4)c3)cc(C(F)(F)F)c2)cn1 [Nilotinib]
# Summary of the method: as §1
# [5] = compound: Nc1cccc2c1CN(C1CCC(=O)NC1=O)C2=O [Lenalidomide]
# Summary of the method: as §1
Cell Line,relative viability ([1]; 0.002 µM),relative viability ([1]; 0.006325 µM),"relative viability ([1]; 0.01 µM, anchor plate)",relative viability ([1]; 0.02 µM),relative viability ([1]; 0.06325 µM),relative viability ([1]; 0.2 µM),relative viability ([2]; 0.2 µM),relative viability ([2]; 0.6325 µM),relative viability ([2]; 2 µM),relative viability ([2]; 6.325 µM),relative viability ([2]; 20 µM),relative viability ([3]; 0.02 µM),relative viability ([3]; 0.2 µM),relative viability ([3]; 0.6325 µM),relative viability ([3]; 2 µM),relative viability ([4]; 0.001 µM),relative viability ([4]; 0.003162 µM),relative viability ([4]; 0.01 µM),relative viability ([4]; 0.03162 µM),relative viability ([4]; 0.1 µM),relative viability ([5]; 0.253 µM),relative viability ([5]; 0.8 µM),relative viability ([5]; 2.53 µM),relative viability ([5]; 8 µM)
EMC-BAC-2,1,0.553,1.18,0.648,0.665,0.302,1.03,0.727,0.968,0.816,0.296,0.952,0.943,0.856,0.763,0.951,0.915,0.956,0.857,0.731,1.15,0.863,1,0.493
EPLC-272H,0.82,0.887,0.301,0.557,0.496,0.123,0.969,0.888,0.934,0.593,0.162,0.974,0.881,1.09,0.786,0.894,0.94,0.92,0.676,0.37,1.11,0.741,1.07,0.754
H3255,0.969,0.808,0.933,0.702,0.834,0.346,0.952,0.882,0.891,0.724,0.35,1.04,0.851,0.989,0.348,0.937,0.971,–,0.877,0.907,0.983,0.969,1.05,0.882
HARA,0.862,0.784,0.834,0.878,0.783,0.131,0.903,0.961,0.998,0.365,0.225,0.979,0.852,1.14,0.561,0.983,0.981,0.948,0.647,0.569,1.11,–,1.13,1.05
HCC-15,0.967,0.923,0.388,0.943,0.33,0.128,0.997,0.717,1.08,0.425,0.105,0.982,0.888,1.07,0.99,0.909,1.18,1.15,0.761,0.496,1.02,0.877,1.21,0.854
HCC-44,0.969,1.01,1.09,0.997,0.55,0.225,1.01,0.969,0.661,0.604,0.203,1.06,0.878,1.04,1.03,1,0.921,0.93,0.949,0.722,1.01,0.68,0.992,0.78
HCC-78,0.869,0.72,–,–,0.999,0.4,1.07,0.549,0.888,0.677,0.424,0.956,0.815,1.08,0.834,1.06,0.937,1.07,0.84,0.746,0.885,0.861,0.957,0.618
HCC-366,0.988,0.987,–,0.998,0.0511,0.053,0.991,–,0.973,0.216,0.0492,1.07,0.731,0.952,0.77,0.982,1.12,1.24,0.971,0.527,1.02,0.989,1.07,0.934
HCC-827,1.06,1,0.647,0.984,1.03,0.235,1.01,0.994,1.03,0.367,0.39,1.02,0.813,0.366,0.188,1.02,1.09,1.07,1.03,1.06,1.04,0.99,1.05,1.1
HOP-62,1.05,0.969,0.912,1.01,0.659,0.249,1.02,0.942,0.782,0.74,0.204,1.02,0.968,1.19,1.14,0.953,0.958,0.948,0.698,0.462,0.943,0.963,1.05,0.93
IA-LM,1.06,0.884,–,0.678,0.0695,0.0432,0.976,0.935,0.896,0.345,0.157,0.983,0.848,1.46,1,0.835,0.793,1.07,0.789,0.909,0.985,0.859,1.05,0.942
LC-2-ad,0.95,0.936,1.03,0.915,0.561,0.207,0.991,0.699,0.944,0.428,0.231,1.05,0.978,1.15,0.944,0.95,1.15,1.15,0.912,0.479,1.04,0.862,1.08,1.02
LCLC-97TM1,0.878,0.814,0.77,0.466,0.528,0.0858,1.02,0.767,0.703,0.456,0.144,0.986,0.712,1.19,0.974,–,0.984,1.06,0.834,0.368,0.943,0.932,1.05,0.616
LCLC-103H,0.982,1.01,0.954,0.941,1.02,0.83,1.02,0.976,0.973,0.742,0.53,0.944,0.884,1.02,0.963,1.01,1.08,1.12,0.975,0.804,0.97,1,0.988,0.783
LK-2,1.03,1.02,0.204,0.556,0.258,0.154,1.01,1.04,0.858,0.957,0.262,0.925,0.823,0.788,0.484,0.89,0.903,1.08,0.729,0.875,0.985,0.956,1.14,0.906
LOU-NH91,0.995,0.922,0.364,0.717,0.334,0.376,0.863,0.903,0.809,0.758,0.394,0.945,0.741,0.834,0.66,0.961,0.944,0.973,0.981,0.967,1,0.873,0.95,0.905
LU99A,1.05,0.94,0.247,0.508,0.241,0.124,0.995,0.909,0.949,0.802,0.323,0.983,0.86,0.853,0.757,0.892,1.02,0.919,0.831,0.558,0.919,0.902,1.05,0.601
LXF-289,0.974,0.979,0.681,1.09,0.85,0.195,1.04,0.741,1.04,0.737,0.503,0.997,0.944,1.02,1.01,0.937,1.19,1.15,0.96,0.576,0.981,1.03,1.11,1.07
NCI-H23,0.953,0.932,0.22,0.663,0.13,0.141,0.99,0.52,0.798,0.523,0.209,1.12,0.794,0.988,0.739,0.963,0.899,1.15,0.668,0.74,0.922,0.91,1.18,0.764
NCI-H322M,0.921,0.883,0.918,0.764,0.426,0.318,0.964,0.895,0.906,0.826,0.522,0.969,0.886,0.696,0.365,1.03,0.962,–,1.06,1.05,0.97,0.953,1.02,0.918
NCI-H358,0.966,0.887,0.352,0.512,0.115,0.111,1.01,0.953,0.86,0.429,0.237,0.938,0.822,0.568,0.409,0.831,1.18,1.12,0.836,0.776,0.908,1.01,0.893,1.08
NCI-H441,0.93,1.01,0.345,0.926,0.133,0.129,1.04,0.754,0.994,0.492,0.207,0.99,0.896,1.23,0.884,0.927,1.4,1.21,0.724,0.938,0.967,0.869,1.21,0.808
NCI-H460,1.02,0.952,0.0332,0.806,0.0356,0.0297,0.988,0.994,0.827,0.45,0.124,0.998,0.82,0.976,0.877,0.924,1.21,1.12,0.78,0.857,0.984,0.956,1.04,1
NCI-H520,1.05,1.02,0.235,0.547,0.163,0.157,1.02,1.01,1.01,0.859,0.383,1.01,–,0.897,0.494,0.86,–,1.21,0.896,0.949,0.918,0.917,1.14,0.784
NCI-H522,0.945,0.935,1.16,0.73,0.617,0.391,1.13,0.893,0.865,0.859,0.607,0.917,0.705,0.907,0.732,–,0.974,0.996,0.89,0.722,0.896,0.816,1.07,0.886
NCI-H596,1.06,0.901,1.09,0.684,0.919,0.921,1.11,1.19,0.88,0.939,0.685,1.12,0.817,0.906,0.815,0.939,0.982,1.05,0.771,0.848,0.906,0.704,1.09,0.723
NCI-H647,0.953,0.935,0.174,0.674,0.0941,0.092,0.933,0.951,0.51,0.821,0.3,0.967,0.868,0.858,0.572,0.889,1.17,1.35,0.729,0.878,0.993,0.753,1.16,0.904
NCI-H650,0.95,0.843,0.812,0.692,0.538,0.124,1.05,0.756,0.917,0.856,0.382,1.12,0.863,0.965,0.926,0.908,0.811,0.805,0.658,0.654,1.03,–,1.21,0.845
